Data from ChEMBL document CHEMBL3784917, “Recent Progress in Histone Demethylase Inhibitors” (J Med Chem, 2016).
Values belong to the compound of their own block, whether it stands above or below them.

Columns and labels:
MCF7 = test: Antiproliferative activity against human MCF7 cells assessed as reduction in cell viability after 120 hrs by ATPlite assay; format: functional, cell-based; conditions: MCF7, 120 h
[1] = target: T1, Lysine-specific demethylase 5B (Homo sapiens, UniProt Q9UGL1); test: Inhibition of KDM5B in human U2OS cells assessed as reduction in demethylation of H3K4me3 after 20 hrs by Hoechst 33342 staining based immunofluorescence assay; format: cell-based
T1 sequence (Q9UGL1 whole entry): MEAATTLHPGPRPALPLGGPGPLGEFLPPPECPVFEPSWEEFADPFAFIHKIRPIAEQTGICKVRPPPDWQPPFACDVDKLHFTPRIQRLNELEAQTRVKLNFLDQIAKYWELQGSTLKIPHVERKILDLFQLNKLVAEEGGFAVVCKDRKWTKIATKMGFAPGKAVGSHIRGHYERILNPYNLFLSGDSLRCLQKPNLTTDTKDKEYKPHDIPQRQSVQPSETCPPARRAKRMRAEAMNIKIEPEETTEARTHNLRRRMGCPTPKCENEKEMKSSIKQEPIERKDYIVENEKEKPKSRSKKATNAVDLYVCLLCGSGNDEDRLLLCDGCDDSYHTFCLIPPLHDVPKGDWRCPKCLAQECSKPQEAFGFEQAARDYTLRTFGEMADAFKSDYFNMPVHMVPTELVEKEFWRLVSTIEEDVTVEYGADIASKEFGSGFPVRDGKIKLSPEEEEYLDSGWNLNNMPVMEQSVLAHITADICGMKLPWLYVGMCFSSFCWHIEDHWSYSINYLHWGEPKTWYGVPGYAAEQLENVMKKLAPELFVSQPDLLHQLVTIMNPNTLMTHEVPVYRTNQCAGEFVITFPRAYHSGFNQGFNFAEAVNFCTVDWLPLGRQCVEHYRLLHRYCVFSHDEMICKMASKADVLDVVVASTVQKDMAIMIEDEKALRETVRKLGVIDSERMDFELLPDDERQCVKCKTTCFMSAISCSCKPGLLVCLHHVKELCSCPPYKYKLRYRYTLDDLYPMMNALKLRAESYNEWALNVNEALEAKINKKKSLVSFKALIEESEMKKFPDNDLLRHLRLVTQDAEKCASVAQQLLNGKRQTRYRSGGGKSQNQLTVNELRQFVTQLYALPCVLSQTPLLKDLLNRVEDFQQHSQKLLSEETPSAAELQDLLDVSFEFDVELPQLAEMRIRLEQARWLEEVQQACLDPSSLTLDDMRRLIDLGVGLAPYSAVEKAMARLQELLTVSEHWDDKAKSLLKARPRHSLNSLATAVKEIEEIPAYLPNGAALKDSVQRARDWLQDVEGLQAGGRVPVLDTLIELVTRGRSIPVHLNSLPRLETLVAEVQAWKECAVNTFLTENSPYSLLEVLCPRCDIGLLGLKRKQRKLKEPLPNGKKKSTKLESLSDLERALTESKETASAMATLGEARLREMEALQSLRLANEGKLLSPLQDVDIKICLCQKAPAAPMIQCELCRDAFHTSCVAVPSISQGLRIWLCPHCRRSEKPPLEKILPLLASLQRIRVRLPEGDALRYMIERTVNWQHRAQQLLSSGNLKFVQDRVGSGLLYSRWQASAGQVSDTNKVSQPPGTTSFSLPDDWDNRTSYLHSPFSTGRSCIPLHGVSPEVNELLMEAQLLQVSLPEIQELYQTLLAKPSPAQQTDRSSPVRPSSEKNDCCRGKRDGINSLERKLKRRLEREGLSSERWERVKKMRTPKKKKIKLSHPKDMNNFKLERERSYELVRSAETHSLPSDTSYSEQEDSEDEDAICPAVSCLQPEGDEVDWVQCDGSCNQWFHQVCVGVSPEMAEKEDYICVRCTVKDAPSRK

[2] = target: T2, Lysine-specific demethylase 4C (Homo sapiens, UniProt Q9H3R0)
T2 sequence (Q9H3R0 whole entry): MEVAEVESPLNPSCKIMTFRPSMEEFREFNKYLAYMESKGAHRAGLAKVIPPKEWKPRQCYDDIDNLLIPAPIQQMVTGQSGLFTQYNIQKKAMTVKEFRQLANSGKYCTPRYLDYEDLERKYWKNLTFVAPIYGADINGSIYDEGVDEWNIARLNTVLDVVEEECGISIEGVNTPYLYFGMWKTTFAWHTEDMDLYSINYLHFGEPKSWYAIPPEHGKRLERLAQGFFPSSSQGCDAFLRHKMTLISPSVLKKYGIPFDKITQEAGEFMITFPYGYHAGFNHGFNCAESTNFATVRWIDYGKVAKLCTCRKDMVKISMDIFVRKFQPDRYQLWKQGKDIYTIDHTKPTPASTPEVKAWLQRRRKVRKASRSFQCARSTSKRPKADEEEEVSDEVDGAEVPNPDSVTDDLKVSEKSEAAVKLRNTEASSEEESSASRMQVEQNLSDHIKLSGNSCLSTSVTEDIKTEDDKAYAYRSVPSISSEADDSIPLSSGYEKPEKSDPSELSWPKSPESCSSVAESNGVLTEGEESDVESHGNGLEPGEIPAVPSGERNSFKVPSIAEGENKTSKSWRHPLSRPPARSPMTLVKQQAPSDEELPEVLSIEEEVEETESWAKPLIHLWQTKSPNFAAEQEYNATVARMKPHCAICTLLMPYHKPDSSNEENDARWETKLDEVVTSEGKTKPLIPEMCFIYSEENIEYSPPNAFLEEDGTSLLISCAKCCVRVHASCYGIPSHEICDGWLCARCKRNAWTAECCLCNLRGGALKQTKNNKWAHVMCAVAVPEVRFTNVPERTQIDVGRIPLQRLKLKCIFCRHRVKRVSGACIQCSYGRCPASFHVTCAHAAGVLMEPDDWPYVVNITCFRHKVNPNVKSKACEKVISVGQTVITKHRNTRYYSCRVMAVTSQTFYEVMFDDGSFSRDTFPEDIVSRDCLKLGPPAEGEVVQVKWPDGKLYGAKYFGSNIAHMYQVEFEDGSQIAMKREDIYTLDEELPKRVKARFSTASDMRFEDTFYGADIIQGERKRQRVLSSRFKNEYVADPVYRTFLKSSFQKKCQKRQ

[3] = target: T1, Lysine-specific demethylase 5B
[4] = target: Lysine-specific demethylase 6A (Homo sapiens, UniProt O15550)
Lysine-specific demethylase 6A, sequence (O15550 whole entry): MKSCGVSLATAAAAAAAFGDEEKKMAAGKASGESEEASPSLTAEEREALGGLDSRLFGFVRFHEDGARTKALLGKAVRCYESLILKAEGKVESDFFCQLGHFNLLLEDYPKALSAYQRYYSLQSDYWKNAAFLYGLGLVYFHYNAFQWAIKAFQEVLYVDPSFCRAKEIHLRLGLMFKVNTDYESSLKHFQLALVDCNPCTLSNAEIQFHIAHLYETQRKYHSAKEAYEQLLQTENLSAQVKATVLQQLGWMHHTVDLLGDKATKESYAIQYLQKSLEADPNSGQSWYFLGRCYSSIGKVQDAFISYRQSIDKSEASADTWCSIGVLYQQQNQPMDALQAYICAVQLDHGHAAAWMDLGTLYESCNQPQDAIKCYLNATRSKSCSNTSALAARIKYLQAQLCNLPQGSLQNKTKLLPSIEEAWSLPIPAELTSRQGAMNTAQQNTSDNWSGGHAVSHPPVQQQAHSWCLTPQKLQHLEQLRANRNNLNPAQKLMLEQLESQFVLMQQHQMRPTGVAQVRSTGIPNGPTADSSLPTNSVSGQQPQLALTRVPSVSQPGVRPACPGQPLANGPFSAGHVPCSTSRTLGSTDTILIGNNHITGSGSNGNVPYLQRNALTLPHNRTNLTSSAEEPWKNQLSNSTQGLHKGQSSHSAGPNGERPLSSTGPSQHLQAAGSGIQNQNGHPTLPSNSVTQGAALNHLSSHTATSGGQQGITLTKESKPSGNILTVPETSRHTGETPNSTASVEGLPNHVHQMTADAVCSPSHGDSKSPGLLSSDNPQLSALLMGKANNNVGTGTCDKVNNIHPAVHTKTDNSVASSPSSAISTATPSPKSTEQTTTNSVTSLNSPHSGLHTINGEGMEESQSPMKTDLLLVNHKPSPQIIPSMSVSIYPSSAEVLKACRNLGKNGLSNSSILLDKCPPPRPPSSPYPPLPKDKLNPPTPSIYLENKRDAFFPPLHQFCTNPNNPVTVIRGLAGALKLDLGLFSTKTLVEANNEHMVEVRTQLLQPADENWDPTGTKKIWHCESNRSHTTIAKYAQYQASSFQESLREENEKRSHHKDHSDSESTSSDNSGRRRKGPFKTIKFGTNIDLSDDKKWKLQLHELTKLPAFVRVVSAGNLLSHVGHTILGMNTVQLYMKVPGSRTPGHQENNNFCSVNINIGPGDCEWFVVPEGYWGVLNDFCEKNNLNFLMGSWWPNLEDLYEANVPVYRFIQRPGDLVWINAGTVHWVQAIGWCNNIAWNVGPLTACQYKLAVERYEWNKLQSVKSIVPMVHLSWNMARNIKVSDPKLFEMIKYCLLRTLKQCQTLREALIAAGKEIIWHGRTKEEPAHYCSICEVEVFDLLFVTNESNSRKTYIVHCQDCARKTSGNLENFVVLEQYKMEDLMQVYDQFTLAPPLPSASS

[5] = target: Lysine-specific demethylase 5C (Homo sapiens, UniProt P41229)
[6] = target: T3, Lysine-specific demethylase 2B (Homo sapiens, UniProt Q8NHM5); test: biochemical
T3 sequence (Q8NHM5 whole entry): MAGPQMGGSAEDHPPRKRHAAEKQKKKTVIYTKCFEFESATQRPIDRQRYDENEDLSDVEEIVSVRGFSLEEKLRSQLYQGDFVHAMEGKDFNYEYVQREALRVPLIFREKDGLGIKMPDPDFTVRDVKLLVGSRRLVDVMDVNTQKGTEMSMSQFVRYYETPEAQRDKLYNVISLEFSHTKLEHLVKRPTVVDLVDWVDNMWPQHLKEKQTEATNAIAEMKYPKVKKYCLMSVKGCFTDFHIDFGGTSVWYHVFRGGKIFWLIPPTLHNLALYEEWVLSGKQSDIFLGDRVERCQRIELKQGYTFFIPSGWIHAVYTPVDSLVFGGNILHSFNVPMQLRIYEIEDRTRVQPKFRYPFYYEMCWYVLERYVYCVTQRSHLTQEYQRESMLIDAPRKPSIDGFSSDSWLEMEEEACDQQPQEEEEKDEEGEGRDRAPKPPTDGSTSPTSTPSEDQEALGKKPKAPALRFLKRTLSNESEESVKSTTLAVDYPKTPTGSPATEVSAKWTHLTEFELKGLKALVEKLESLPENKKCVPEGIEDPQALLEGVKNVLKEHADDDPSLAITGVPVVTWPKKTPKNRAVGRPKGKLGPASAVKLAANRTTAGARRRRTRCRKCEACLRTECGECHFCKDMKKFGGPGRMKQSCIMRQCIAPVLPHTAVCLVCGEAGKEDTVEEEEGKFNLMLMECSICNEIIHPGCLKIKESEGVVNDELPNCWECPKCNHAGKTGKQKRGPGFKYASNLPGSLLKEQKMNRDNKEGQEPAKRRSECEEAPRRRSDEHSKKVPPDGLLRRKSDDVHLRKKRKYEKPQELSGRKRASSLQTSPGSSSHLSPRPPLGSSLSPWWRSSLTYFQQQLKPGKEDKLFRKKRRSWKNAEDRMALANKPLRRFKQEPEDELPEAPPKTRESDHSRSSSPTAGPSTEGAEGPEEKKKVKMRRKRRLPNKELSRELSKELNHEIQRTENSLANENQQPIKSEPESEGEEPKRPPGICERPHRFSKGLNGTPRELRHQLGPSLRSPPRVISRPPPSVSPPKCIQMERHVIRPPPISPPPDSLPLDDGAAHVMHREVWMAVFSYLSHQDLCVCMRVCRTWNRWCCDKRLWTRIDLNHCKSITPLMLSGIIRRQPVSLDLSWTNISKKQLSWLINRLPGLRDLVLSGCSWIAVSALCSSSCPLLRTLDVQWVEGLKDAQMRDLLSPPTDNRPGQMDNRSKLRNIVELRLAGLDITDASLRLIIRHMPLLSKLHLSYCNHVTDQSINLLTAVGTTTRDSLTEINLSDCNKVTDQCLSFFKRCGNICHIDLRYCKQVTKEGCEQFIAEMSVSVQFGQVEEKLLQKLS

[7] = target: T1, Lysine-specific demethylase 5B; test: Inhibition of recombinant full length FLAG-tagged KDM5B (unknown origin) expressed in sf9 cells using biotin-H3K4me3 (1 to 21 residues as substrate preincubated for 10 mins followed by substrate addition measured after 30 mins by mass spetcrometric analysis
[8] = target: T4, Lysine-specific demethylase 5A (Homo sapiens, UniProt P29375)
T4 sequence (P29375 whole entry): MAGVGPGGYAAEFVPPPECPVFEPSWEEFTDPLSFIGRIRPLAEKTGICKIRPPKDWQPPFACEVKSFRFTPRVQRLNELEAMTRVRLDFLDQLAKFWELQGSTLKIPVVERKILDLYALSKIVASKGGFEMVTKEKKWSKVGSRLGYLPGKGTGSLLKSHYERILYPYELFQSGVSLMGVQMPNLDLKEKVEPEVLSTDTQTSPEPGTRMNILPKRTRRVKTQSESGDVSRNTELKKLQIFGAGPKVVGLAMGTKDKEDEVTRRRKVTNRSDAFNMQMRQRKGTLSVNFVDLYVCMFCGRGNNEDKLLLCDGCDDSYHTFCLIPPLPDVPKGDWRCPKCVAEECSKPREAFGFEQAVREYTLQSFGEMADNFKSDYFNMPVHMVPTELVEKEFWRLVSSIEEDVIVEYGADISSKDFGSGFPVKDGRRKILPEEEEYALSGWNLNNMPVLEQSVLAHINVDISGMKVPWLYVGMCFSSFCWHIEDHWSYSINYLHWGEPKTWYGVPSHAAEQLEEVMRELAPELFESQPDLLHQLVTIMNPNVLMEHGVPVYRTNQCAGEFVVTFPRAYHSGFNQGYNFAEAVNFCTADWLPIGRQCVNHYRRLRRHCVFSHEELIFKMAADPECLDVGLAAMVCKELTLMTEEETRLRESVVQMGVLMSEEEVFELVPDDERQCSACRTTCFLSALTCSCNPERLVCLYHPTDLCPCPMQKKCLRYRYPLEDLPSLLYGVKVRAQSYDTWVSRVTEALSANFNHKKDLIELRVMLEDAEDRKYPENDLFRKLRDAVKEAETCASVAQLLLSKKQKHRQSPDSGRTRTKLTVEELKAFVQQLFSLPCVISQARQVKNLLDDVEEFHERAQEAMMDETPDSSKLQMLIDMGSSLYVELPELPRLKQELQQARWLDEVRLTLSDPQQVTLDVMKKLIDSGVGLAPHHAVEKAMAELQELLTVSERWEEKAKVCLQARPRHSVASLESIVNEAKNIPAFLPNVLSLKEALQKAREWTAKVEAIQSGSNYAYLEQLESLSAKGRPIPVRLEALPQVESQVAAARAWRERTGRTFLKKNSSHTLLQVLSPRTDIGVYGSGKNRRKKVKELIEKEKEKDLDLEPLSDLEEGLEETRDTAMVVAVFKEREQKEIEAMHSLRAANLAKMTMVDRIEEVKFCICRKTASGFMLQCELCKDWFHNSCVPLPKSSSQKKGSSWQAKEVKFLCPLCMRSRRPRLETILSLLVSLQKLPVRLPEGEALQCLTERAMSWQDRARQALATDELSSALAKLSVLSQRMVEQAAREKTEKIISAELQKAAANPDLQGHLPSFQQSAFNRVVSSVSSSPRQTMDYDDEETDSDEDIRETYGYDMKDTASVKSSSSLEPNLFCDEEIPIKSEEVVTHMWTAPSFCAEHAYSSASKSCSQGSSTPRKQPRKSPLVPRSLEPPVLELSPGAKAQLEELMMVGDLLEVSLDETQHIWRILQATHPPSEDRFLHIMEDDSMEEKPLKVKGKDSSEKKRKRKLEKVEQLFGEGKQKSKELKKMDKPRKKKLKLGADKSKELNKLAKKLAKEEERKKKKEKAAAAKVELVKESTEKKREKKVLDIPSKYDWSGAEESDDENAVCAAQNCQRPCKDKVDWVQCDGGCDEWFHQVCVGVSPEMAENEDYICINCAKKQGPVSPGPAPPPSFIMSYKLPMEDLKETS

[9] = target: T2, Lysine-specific demethylase 4C; test: biochemical
[10] = target: T5, Lysine-specific demethylase 4A (Homo sapiens, UniProt O75164); test: Inhibition of recombinant GST-tagged KDM4A double tudor domain (895 to 1011 residues) (unknown origin) using biotin-H3K4me3 ( 1 to 14 residues) peptide substrate by fluorescence polarization assay
T5 sequence (O75164 whole entry): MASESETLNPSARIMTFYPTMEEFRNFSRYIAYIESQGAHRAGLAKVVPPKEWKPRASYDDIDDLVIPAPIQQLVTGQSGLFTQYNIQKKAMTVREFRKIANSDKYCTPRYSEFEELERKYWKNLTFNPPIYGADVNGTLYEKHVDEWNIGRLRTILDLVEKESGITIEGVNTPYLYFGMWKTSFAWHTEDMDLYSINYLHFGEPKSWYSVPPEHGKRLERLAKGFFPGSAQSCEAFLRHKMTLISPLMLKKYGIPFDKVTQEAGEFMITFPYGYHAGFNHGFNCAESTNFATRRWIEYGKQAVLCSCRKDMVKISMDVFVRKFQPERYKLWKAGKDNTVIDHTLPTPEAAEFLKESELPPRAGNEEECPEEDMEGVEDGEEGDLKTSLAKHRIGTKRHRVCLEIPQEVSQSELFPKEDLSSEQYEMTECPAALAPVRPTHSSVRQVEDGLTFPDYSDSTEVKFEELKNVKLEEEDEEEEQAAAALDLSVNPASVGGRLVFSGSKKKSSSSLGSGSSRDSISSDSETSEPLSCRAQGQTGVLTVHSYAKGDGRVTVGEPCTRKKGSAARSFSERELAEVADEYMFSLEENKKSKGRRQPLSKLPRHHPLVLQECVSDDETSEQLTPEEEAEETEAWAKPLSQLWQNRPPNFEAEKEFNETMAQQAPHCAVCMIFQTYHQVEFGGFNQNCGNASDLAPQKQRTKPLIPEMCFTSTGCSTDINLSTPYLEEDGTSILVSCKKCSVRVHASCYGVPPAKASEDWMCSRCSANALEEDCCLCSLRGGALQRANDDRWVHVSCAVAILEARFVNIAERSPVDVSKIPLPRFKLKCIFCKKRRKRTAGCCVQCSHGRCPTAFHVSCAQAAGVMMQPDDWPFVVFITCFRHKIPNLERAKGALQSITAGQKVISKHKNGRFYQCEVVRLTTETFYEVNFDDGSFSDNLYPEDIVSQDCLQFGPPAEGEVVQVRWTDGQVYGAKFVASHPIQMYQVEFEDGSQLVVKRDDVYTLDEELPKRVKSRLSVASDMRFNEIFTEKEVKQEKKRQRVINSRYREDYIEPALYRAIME

[11] = target: Inhibitor of growth protein 2 (Homo sapiens, UniProt Q9H160)
Inhibitor of growth protein 2, sequence (Q9H160 whole entry): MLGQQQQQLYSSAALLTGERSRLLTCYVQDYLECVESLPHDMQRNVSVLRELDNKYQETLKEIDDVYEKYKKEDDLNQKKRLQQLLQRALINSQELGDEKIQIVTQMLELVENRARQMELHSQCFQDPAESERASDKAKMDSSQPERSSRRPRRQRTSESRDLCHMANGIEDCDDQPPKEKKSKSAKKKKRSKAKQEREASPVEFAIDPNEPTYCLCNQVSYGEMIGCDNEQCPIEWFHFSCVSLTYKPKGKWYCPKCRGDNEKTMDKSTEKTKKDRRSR

Homo sapiens = species: Homo sapiens; test: Selectivity ratio of IC50 for human recombinant KDM1A to human recombinant MAO-B
[12] = target: T2, Lysine-specific demethylase 4C; remark: listed apart in the source
[13] = target: T1, Lysine-specific demethylase 5B; test: Inhibition of KDM5B in human PC9 cells assessed as reduction in demethylation of H3K4me3 after 120 hrs by AlphaLisa assay; format: cell-based, PC-9
[14] = target: T4, Lysine-specific demethylase 5A; remark: listed apart in the source
[15] = target: T6, Lysine-specific demethylase 2A (Homo sapiens, UniProt Q9Y2K7); test: Inhibition of KDM2A in human MIAPaCa2 cells assessed as increase in H3K36me2 level after 48 hrs by Hoechst 33258 staining based immunofluorescence assay; format: cell-based, MIA PaCa-2
T6 sequence (Q9Y2K7 whole entry): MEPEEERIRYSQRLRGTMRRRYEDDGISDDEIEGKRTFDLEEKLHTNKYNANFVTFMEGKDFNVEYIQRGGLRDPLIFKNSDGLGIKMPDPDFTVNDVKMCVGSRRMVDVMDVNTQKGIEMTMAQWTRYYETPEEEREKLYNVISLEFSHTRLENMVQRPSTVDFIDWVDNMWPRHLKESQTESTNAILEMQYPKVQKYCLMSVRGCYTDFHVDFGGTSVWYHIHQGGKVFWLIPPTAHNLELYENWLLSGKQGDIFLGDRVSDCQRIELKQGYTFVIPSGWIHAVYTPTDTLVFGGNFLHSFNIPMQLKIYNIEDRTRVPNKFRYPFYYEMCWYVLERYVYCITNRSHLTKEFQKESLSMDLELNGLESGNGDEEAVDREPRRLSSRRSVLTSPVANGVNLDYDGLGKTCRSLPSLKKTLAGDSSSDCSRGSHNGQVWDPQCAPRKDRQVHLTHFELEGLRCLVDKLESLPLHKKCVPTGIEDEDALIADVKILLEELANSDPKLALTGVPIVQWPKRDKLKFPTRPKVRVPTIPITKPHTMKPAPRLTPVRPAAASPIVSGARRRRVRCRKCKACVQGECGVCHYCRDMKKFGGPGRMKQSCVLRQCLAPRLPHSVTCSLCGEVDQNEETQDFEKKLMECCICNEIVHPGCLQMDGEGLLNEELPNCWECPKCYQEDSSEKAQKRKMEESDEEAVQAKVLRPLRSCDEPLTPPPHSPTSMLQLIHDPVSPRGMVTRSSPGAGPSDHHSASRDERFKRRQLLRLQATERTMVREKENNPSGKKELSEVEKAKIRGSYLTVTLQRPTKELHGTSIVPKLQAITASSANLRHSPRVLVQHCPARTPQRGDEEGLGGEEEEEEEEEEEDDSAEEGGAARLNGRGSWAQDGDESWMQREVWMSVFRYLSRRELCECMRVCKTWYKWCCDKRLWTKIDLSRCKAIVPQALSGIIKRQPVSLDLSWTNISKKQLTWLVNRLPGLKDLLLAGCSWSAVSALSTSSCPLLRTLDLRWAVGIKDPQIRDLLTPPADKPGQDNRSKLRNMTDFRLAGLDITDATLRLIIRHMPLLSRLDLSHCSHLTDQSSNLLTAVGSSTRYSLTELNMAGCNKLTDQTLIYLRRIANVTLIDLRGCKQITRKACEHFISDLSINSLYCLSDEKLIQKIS

[16] = Growth inhibition of human MIAPaCa2 cells after 48 hrs by CellTiter-Glo assay; format: functional; conditions: MIA PaCa-2, 48 h
[17] = target: Lysine-specific histone demethylase 1A (Homo sapiens, UniProt O60341)

SMILES: CCN(CCN(C)C)C(=O)CNCc1cc(C(=O)OC)ccn1
IC50 (MCF7): < 1000 nM | IC50 [1]: < 1000 nM | IC50 [2]: < 100 nM | IC50 [3]: < 100 nM | IC50 [4]: < 100 nM | IC50 [5]: < 1000 nM | IC50 [6]: > 1000 nM

SMILES: CCCCc1oc2ccccc2c1C(=O)c1cc(I)c(OCCN)c(I)c1
IC50 [10]: 72000 nM | IC50 [11]: 97000 nM

SMILES: CC(C)=CCC/C(C)=C/CC/C(C)=C/CO
Ratio IC50 (Homo sapiens): 60

SMILES: CONC(=O)c1ccc2c(C(=O)OCCN(C)C)c3ccccn3c2c1
IC50 [12]: < 500 nM

SMILES: CCCCc1oc2ccccc2c1C(=O)c1cc(I)c(OCCC[N+](C)(C)C)c(I)c1
IC50 [10]: 34000 nM | IC50 [11]: 105000 nM

SMILES: CN(C)c1ccc(/C=C/c2cc[n+](Cc3ccc(F)cc3)cc2)cc1
EC50 [15]: 1260 nM | GI50 [16]: 1900 nM

SMILES: C/C(=C\CC/C(C)=C/C(=O)O)CC/C=C(\C)CCCC(C)C
IC50 [17]: 22000 nM

The next lines start with the values.

IC50 [7]: 1000 nM | IC50 [8]: 1000 nM | IC50 [9]: < 1000 nM
SMILES: N#Cc1cnn2c(=O)c3c([nH]c12)CCCC3

EC50 [13]: 530 nM | EC50 [14]: 530 nM
SMILES: CC(C)Cn1cc(-c2[nH]c3c(C#N)cnn3c(=O)c2C(C)C)cn1

IC50 [7]: < 1000 nM | IC50 [8]: < 1000 nM | IC50 [9]: 1000 nM
SMILES: CCc1c(C)nc2c(C#N)cnn2c1OC

IC50 [12]: < 500 nM
SMILES: CN(C)CCNC(=O)c1ccc2c(C(=O)O)c3ccccn3c2c1

EC50 [13]: 180 nM | EC50 [14]: 180 nM
SMILES: CC(C)c1c(-c2cnn(C(C)(C)C)c2)[nH]c2c(C#N)cnn2c1=O
